Laboratory results taken from patent publication US5084463A, “N-quinolinyl alkyl-substituted 1-aryloxy-2-propanolamine and propylamine derivatives possessing class III antiarrhythmic activity” (American Home Products Corporation, priority 1990, dated 1992).

What was measured:
Purkinje Fiber = test: Cardiac electrophysiology in vitro: action potential parameters of dog Purkinje fibers; format: cell-based; settings: 3 μM, BCL = 300
Method: Bundles of free-running Purkinje fibers with attached myocardium obtained from either ventricle of adult dog heart were pinned without stretching to the bottom of a 10 mL tissue chamber and continuously superfused with oxygenated Tyrode's solution at a flow rate of 5 mL/minute. The composition of the Tyrode's solution was (mM): NaCl, 138; KCl 4; CaCl2, 2; MgCl2, 0.5; NaHCO3, 24; dextrose, 5.5. The solution was aerated with 95% O2 --5% CO2 at 37° C. Bath temperature was maintained at 37°±0.5° C. by circulating the pre-warmed superfusate through a thermostatically controlled water bath immediately prior to entering the tissue chamber. […] The first derivative of the action potential upstroke (Vmax) was obtained using an analog differentiator circuit, coupled to a peak-hold circuit that retained the recorded value of Vmax for 30 to 70-msec. […] Action potential (AP) parameters measured included: diastolic take-off potential (or activation voltage, V(act); AP overshoot (Vos); AP duration measured as the time taken to repolarize to -20 mV (APD-20), -60 mV (APD-60), and -80 mV (APD-80); and maximal upstroke velocity (Vmax). An increase in APD-60 that occurred without a significant change in Vmax was taken, by definition, to indicate Class III antiarrhythmic activity "in vitro".

Dog = test: Ventricular fibrillation threshold in dog; format: in vivo, mongrel dog; settings: 5 mg/kg i.v.
Method: VENTRICULAR FIBRILLATION THRESHOLD
Mongrel dogs of both sexes weighing 12 to 18 kg were anesthetized with sodium pentobarbital (35 mg/kg i.v. supplemented with 5 mg/kg/h) and artificially ventilated with room air (minute volume: 200 mL/kg).
A right thoracotomy was performed at the fifth intercostal space and the heart suspended in a pericardial cradle. Bipolar electrodes for stimulation were sutured to the free wall of the right atrium and to the right ventricle.
The dog heart was paced by a stimulus for driving a constant current isolation unit.
Ventricular fibrillation threshold (VFT) was determined during atrial pacing at […]. Trains of 4-msec duration square-wave pulses (50 Hz, 200-msec duration) were delivered to the right ventricle via the epicardial bipolar electrode (silver contacts 1 mm in diameter and 5 mm apart embedded in acrylic matrix). Trains of pulses were delivered every 12th paced beat and were timed to terminate with the end of the T wave of the ECG. Current intensity was increased progressively until ventricular fibrillation (VF) occurred. The lowest current intensity producing VF was defined as the ventricular fibrillation threshold (VFT). […] VFT was measured twice before drug administration to establish a stable pre-drug threshold. […]

[1] = dextro enantiomer; Taggart et al. 1985, McComb et al. 1985; cited from earlier work

## CN(Cc1ccc2ccccc2n1)CC(O)COc1ccc([N+](=O)[O-])cc1.Cl.Cl (stereo not shown) [Example 3, 1-[Methyl(2-quinolinylmethyl)amino]-3-(4-nitrophenoxy)-2-propanol Dihydrochloride]
Purkinje Fiber
  APD-60: did not pace

## CN(Cc1ccc2ccccc2n1)CC(O)COc1ccc(NS(C)(=O)=O)cc1 (stereo not shown) [Example 4, N-[4-[2-Hydroxy-3-[methyl(2-quinolinylmethyl)amino]propoxy]phenyl]methanesulfonamide]
Dog; n = 6, x + S.E., pre-drug vehicle 8 + 2
  Ventricular fibrillation threshold (current threshold necessary to induce fibrillation): 25 + 7 mA
Dog; of 6 animals
  animals defibrillated spontaneously: 2 animals

## CC(C)NCC(O)c1ccc(NS(C)(=O)=O)cc1 (stereo not shown) [Sotalol, 4-(2-isopropylamino-1-hydroxyethyl)-methanesulfonamide]
[1]
  selective Class III antiarrhythmic activity: selective Class III antiarrhythmic activity
